Assay results: patent US20130066055A1, “NEW BINDER-DRUG CONJUGATES (ADCS) AND USE THEREOF” (Bayer Intellectual Property GmbH, priority 2011, published 2013)
“And” between values parts separate entries of the source, which are not always exact repeats. Identical values can stand only once. Counter-ions that a name gives are not always drawn. Square brackets hold non-standard residues; d marks the D form. Peptide text beside a SMILES is read from it. * marks the point of attachment. X2 = CC(C)[C@@H](C(=O)*)N(C)CCCCCCN1C(=O)CC(SC[C@H](N)C(=O)O)C1=O; X3 = CC(C)[C@@H](C(=O)*)N(C)CCOCCOCCOCCC(=O)NCCCC[C@H](N)C(=O)O; X4 = C[C@@H](O)[C@@H](C(=O)*)N(C)CCCCCC(=O)NCCCC[C@H](N)C(=O)O; X1 = CC(C)[C@@H](C(=O)*)N(C)CCCCCC(=O)NCCCC[C@H](N)C(=O)O; Dolaproine = CO[C@@H]([C@@H]1CCCN1)[C@@H](C)C(=O)O; Dil = CC[C@H](C)[C@H](NC)[C@@H](CC(=O)O)OC; Oxazinan2yl(1,2) = C1CCN(*)OC1

Assays:
tubulin = experiment: Fluorescence-based microtubule (tubulin) polymerization assay; assay type: biochemical
Protocol: Tubulin polymerization was investigated using the “Fluorescence-based Microtubule Polymerisation Assay Kit” from Cytoskeleton (Denver, Colo., USA; order number: BK011). With this assay, GTP is added to unpolymerized tubulin, allowing polymerization to take place spontaneously. The assay is based on the binding of the fluorophore 4′,6-di-amidino-2-phenylindole (DAPI) to tubulin. Free and bound DAPI can be differentiated on the basis of different emission spectra.
[…] In addition to the buffer control, paclitaxel, with a polymerization-increasing effect, and vinblastin, with a polymerization inhibiting effect, were run additionally as assay controls. Measurement was carried out using 96-well plates with a half base area. The kinetics of the tubulin polymerization were monitored in a Fluorimeter at 37° C. for 1 hour. The excitation wavelength was 355 nm, and emission was monitored at 460 nm. For the region of linear increase within the first 10 minutes, a calculation was made of the change in fluorescence per minute (ΔF/min), which represents the polymerization rate of the microtubuli. The potency of the test substances was quantified on the basis of their respective reduction of the polymerization rate.

[1] = target: T1, P-glycoprotein (P-gp, ABCB1) (Homo sapiens, UniProt P08183); experiment: Flux assay in P-gp overexpressing L-MDR1 cells; assay type: in vitro ADME; conditions: LLC-PK1, basal to apical
T1 construct: expressed in transfected cells; host or cells: LLC-PK1 (pig kidney) cells transfected with human MDR1 (L-MDR1 cells)
T1 sequence (P08183 whole entry): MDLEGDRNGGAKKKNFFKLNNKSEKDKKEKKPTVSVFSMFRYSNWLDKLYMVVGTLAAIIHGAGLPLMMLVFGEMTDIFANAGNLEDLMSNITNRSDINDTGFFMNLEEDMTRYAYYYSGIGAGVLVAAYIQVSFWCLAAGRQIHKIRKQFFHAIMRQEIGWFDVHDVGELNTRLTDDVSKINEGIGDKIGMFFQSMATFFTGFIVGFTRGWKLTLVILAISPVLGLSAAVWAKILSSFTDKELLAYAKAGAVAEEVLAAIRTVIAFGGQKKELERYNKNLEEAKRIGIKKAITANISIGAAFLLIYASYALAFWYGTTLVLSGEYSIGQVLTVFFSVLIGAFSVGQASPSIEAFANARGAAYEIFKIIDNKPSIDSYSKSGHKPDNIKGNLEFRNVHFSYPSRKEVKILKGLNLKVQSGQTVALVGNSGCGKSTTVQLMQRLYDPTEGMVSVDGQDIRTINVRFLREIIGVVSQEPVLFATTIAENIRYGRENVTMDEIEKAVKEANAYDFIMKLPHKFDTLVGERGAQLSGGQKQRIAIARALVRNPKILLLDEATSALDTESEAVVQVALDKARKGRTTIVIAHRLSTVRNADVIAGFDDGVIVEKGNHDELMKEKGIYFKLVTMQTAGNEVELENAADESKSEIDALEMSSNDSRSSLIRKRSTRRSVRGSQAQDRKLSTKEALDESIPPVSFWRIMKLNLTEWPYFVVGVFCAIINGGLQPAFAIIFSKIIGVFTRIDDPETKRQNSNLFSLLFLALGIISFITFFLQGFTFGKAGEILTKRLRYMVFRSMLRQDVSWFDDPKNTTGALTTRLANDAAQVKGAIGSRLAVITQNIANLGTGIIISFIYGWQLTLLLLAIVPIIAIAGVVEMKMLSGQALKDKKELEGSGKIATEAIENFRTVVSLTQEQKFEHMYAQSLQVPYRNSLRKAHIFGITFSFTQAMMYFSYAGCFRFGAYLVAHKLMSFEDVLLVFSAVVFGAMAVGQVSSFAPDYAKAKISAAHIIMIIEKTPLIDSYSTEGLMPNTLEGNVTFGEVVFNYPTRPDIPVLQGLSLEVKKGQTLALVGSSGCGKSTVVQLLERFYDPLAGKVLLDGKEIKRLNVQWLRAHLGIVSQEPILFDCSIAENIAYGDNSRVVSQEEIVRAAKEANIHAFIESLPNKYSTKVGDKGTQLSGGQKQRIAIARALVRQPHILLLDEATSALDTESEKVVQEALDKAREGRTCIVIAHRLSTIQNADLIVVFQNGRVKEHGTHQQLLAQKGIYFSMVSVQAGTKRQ
Protocol: The substrate properties of a substance for P-gp (ABCB1) were determined by means of a flux assay using LLC-PK1 cells which overexpress P-gp (L-MDR1 cells) [A. H. Schinkel et al., J. Clin. Invest. 96, 1698-1705 (1995)]. For this purpose, the LLC-PK1 cells or L-MDR1 cells were cultured on 96-well filter plates for 3-4 days. For determination of the permeation, the respective test substance, alone or in the presence of an inhibitor (such as Ivermectin or Verapamil, for example), was applied in a HEPES buffer to the cells either apically (A) or basally (B) and incubated for 2 hours. After 0 hours and after 2 hours, samples were taken from the cis and trans compartments. The samples were separated by HPLC using reverse phase columns. The HPLC system was coupled via a Turbo Ion Spray Interface to a Triple Quadropol mass spectrometer API 3000 (Applied Biosystems Applera, Darmstadt, Germany). The permeability was evaluated on the basis of a Papp value which was calculated using the formula published by Schwab et al. [D. Schwab et al., J. Med. Chem. 46, 1716-1725 (2003)].

[2] = Caco-2 flux assay for cell permeability; assay type: in vitro ADME; conditions: human, Caco-2 cells, basal to apical
Protocol: The cell permeability of a substance can be investigated by means of in vitro testing in a flux assay using Caco-2 cells [M. D. Troutman and D. R. Thakker, Pharm. Res. 20 (8), 1210-1224 (2003)]. For this purpose, the cells were cultured for 15-16 days on 24-well filter plates. For the determination of permeation, the respective working example was applied in a HEPES buffer to the cells either apically (A) or basally (B) and incubated for 2 hours. After 0 hours and after 2 hours, samples were taken from the cis and trans compartments. The samples were separated by HPLC (Agilent 1200, Böblingen, Germany) using reverse phase columns. The HPLC system was coupled via a Turbo Ion Spray Interface to a Triple Quadropol mass spectrometer API 4000 (Applied Biosystems Applera, Darmstadt, Germany). The permeability was evaluated on the basis of a Papp value, which was calculated using the formula published by Schwab et al. [D. Schwab et al., J. Med. Chem. 46, 1716-1725 (2003)].

Structure (SMILES) | Tubulin polymerization in the presence of toxophore in [%]. Tubulin polymerization rate at 1 μM MMAF set at 100% (tubulin; toxophore 1 μM) | Tubulin polymerization in the presence of toxophore in [%]. Tubulin polymerization rate at 1 μM MMAF set at 100% (tubulin; toxophore 10 μM) [%] | Papp B→A at 2 h [1] [×10⁻⁶ cm/s] | Papp B→A at 2 h [2] [×10⁻⁶ cm/s]
CC[C@H](C)[C@@H]([C@@H](CC(=O)N1CCC[C@H]1[C@H](OC)[C@@H](C)C(=O)N[C@@H](Cc1c[nH]c2ccccc12)C(=O)NCc1ccccc1)OC)N(C)C(=O)[C@@H](NC(=O)[C@H](C(C)C)N(C)CCCC(=O)NNC(=O)CCCCCN1C(=O)CC(SC[C@H](N)C(=O)O)C1=O)C(C)C (stereo partly drawn) [Example 77, N-(4-{2-[6-(3-{[(2R)-2-Amino-2-carboxyethyl]sulphanyl}-2,5-dioxopyrrolidin-1-yl)hexanoyl]hydrazino}-4-oxobutyl)-N-methyl-L-valyl-N-[(3R,4S,5S)-1-{(2S)-2-[(1R,2R)-3-{[(2S)-1-(benzylamino)-3-(1H-indol-3-yl)-1-oxopropan-2-yl]amino}-1-methoxy-2-methyl-3-oxopropyl]pyrrolidin-1-yl}-3-methoxy-5-methyl-1-oxoheptan-4-yl]-N-methyl-L-valinamide] | 111% | 45 | 0.2 | 0.7
CC[C@H](C)[C@@H]([C@@H](CC(=O)N1CCC[C@H]1[C@H](OC)[C@@H](C)C(=O)N[C@@]1(C(=O)N2CCCCO2)C[C@@H]1c1ccccc1)OC)N(C)C(=O)[C@@H](NC(=O)[C@H](C(C)C)N(C)CCCC(=O)NNC(=O)CCCCCN1C(=O)CC(SC[C@H](N)C(=O)O)C1=O)C(C)C (stereo partly drawn) [Example 73, N-(4-{2-[6-(3-{[(2R)-2-Amino-2-carboxyethyl]sulphanyl}-2,5-dioxopyrrolidin-1-yl)hexanoyl]hydrazino}-4-oxobutyl)-N-methyl-L-valyl-N-[(3R,4S,5S)-3-methoxy-1-{(2S)-2-[(1R,2R)-1-methoxy-2-methyl-3-{[(1S,2R)-1-(1,2-oxazinan-2-ylcarbonyl)-2-phenylcyclopropyl]amino}-3-oxopropyl]pyrrolidin-1-yl}-5-methyl-1-oxoheptan-4-yl]-N-methyl-L-valinamide] | 120% | – | 0.21 | 0.25
CC[C@H](C)[C@@H]([C@@H](CC(=O)N1CCC[C@H]1[C@H](OC)[C@@H](C)C(=O)N[C@@H](Cc1c[nH]c2ccccc12)C(=O)O)OC)N(C)C(=O)[C@@H](NC(=O)[C@H](C(C)C)N(C)CCCCCC(=O)NCCCC[C@H](N)C(=O)O)C(C)C [Example 116, N-(6-{[(5S)-5-Amino-5-carboxypentyl]amino}-6-oxohexyl)-N-methyl-L-valyl-N-[(3R,4S,5S)-1-{(2S)-2-[(1R,2R)-3-{[(1S)-1-carboxy-2-(1H-indol-3-yl)ethyl]amino}-1-methoxy-2-methyl-3-oxopropyl]pyrrolidin-1-yl}-3-methoxy-5-methyl-1-oxoheptan-4-yl]-N-methyl-L-valinamide] (X1-V[Dil][Dolaproine]W-OH) | 80% | 14 | 0.4 | 0.1
CC[C@H](C)[C@@H]([C@@H](CC(=O)N1CCC[C@H]1[C@H](OC)[C@@H](C)C(=O)N[C@@H](Cc1c[nH]c2ccccc12)C(=O)N1CCCCO1)OC)N(C)C(=O)[C@@H](NC(=O)[C@H](C(C)C)N(C)CCOCCOCCOCCC(=O)NCCCC[C@H](N)C(=O)O)C(C)C [Example 117, N-[(18S)-[8-Amino-18-carboxy-12-oxo-3,6,9-trioxa-13-azaoctadec-1-yl]-N-methyl-L-valyl-N-[(3R,4S,5S)-1-{(2S)-2-[(1R,2R)-3-{[(2S)-3-(1H-indol-3-yl)-1-(1,2-oxazinan-2-yl)-1-oxopropan-2-yl]amino}-1-methoxy-2-methyl-3-oxopropyl]pyrrolidin-1-yl}-3-methoxy-5-methyl-1-oxoheptan-4-yl]-N-methyl-L-valinamide trifluoroacetate] (X3-V[Dil][Dolaproine]W-{Oxazinan2yl(1,2)}) | 60% and 78% | – | – | –
CC[C@H](C)[C@@H]([C@@H](CC(=O)N1CCC[C@H]1[C@H](OC)[C@@H](C)C(=O)N[C@@H](Cc1c[nH]c2ccccc12)C(=O)N1CCCCO1)OC)N(C)C(=O)[C@@H](NC(=O)[C@H](C(C)C)N(C)CCCCCCN1C(=O)CC(SC[C@H](N)C(=O)O)C1=O)C(C)C (stereo partly drawn) [Example 76, N-[6-(3-{[(2R)-2-Amino-2-carboxyethyl]sulphanyl}-2,5-dioxopyrrolidin-1-yl)hexyl]-N-methyl-L-valyl-N-[(3R,4S,5S)-1-{(2S)-2-[(1R,2R)-3-{[(2S)-3-(1H-indol-3-yl)-1-(1,2-oxazinan-2-yl)-1-oxopropan-2-yl]amino}-1-methoxy-2-methyl-3-oxopropyl]pyrrolidin-1-yl}-3-methoxy-5-methyl-1-oxoheptan-4-yl]-N-methyl-L-valinamide] (X2-V[Dil][Dolaproine]W-{Oxazinan2yl(1,2)}) | 121% | 35 | – | –
CC[C@H](C)[C@@H]([C@@H](CC(=O)N1CCC[C@H]1[C@H](OC)[C@@H](C)C(=O)N[C@@H](Cc1ccccc1)C(=O)NCc1ccccc1)OC)N(C)C(=O)[C@@H](NC(=O)[C@H](C(C)C)N(C)CCCC(=O)NNC(=O)CCCCCN1C(=O)CC(SC[C@H](N)C(=O)O)C1=O)C(C)C (stereo partly drawn) [Example 78, N-(4-{2-[6-(3-{[(2R)-2-Amino-2-carboxyethyl]sulphanyl}-2,5-dioxopyrrolidin-1-yl)hexanoyl]hydrazino}-4-oxobutyl)-N-methyl-L-valyl-N-[(3R,4S,5S)-1-{(2S)-2-[(1R,2R)-3-{[(2S)-1-(benzylamino)-1-oxo-3-phenylpropan-2-yl]amino}-1-methoxy-2-methyl-3-oxopropyl]pyrrolidin-1-yl}-3-methoxy-5-methyl-1-oxoheptan-4-yl]-N-methyl-L-valinamide] | 110% | – | – | –
CC[C@H](C)[C@@H]([C@@H](CC(=O)N1CCC[C@H]1[C@H](OC)[C@@H](C)C(=O)N[C@@H](Cc1ccc(O)cc1)C(=O)N1CCCCO1)OC)N(C)C(=O)[C@@H](NC(=O)[C@H](C(C)C)N(C)CCCCCC(=O)NCCCC[C@H](N)C(=O)O)C(C)C [Example 127, N-(6-{[(5S)-5-Amino-5-carboxypentyl]amino}-6-oxohexyl)-N-methyl-L-valyl-N-[(3R,4S,5S)-1-{(2S)-2-[(1R,2R)-3-{[(2S)-3-(4-hydroxyphenyl)-1-(1,2-oxazinan-2-yl)-1-oxopropan-2-yl]amino}-1-methoxy-2-methyl-3-oxopropyl]pyrrolidin-1-yl}-3-methoxy-5-methyl-1-oxoheptan-4-yl]-N-methyl-L-valinamide trifluoroacetate] (X1-V[Dil][Dolaproine]Y-{Oxazinan2yl(1,2)}) | – | – | – | 0.15
CC[C@H](C)[C@@H]([C@@H](CC(=O)N1CCC[C@H]1[C@H](OC)[C@@H](C)C(=O)N[C@@H](Cc1c[nH]c2ccccc12)C(=O)N1CCCCO1)OC)N(C)C(=O)[C@@H](NC(=O)[C@H]([C@@H](C)O)N(C)CCCCCC(=O)NCCCC[C@H](N)C(=O)O)C(C)C [Example 126, N-(6-{[(5S)-5-Amino-5-carboxypentyl]amino}-6-oxohexyl)-N-methyl-L-threonyl-N-[(3R,4S,5S)-1-{(2S)-2-[(1R,2R)-3-{[(2S)-3-(1H-indol-3-yl)-1-(1,2-oxazinan-2-yl)-1-oxopropan-2-yl]amino}-1-methoxy-2-methyl-3-oxopropyl]pyrrolidin-1-yl}-3-methoxy-5-methyl-1-oxoheptan-4-yl]-N-methyl-L-valinamide trifluoroacetate] (X4-V[Dil][Dolaproine]W-{Oxazinan2yl(1,2)}) | – | – | – | 0.18
